Measured values taken from patent publication US11497819B2, “PSMA ligands for imaging and endoradiotherapy” (priority 2017, dated 2022).
Where two headings read alike, the source gives them in different places. *1 amine or outer side, *2 acyl side, *3 side chain or, on linkers, in order; H or OH if unused. Where a SMILES comes first, the peptide text is derived from it. Side-chain parts run from the residue outwards. [ ]: non-standard residue; d: D form. The star is where a group is joined. ξ: configuration not given here. ξOrn(Nα-γGlu(Nα-CO-Glu)) = O=C(O)CC[C@H](NC(=O)N[C@@H](CCC(=O)NC(CCCN*)C(=O)O)C(=O)O)C(=O)O; DOTAGA = O=C(O)CN1CCN(CC(=O)O)CCN(C(CCC(=O)*)C(=O)O)CCN(CC(=O)O)CC1; Phe(4-NO2) = N[C@@H](Cc1ccc([N+](=O)[O-])cc1)C(=O)O; X1 = O=C(c1ccc([N+](=O)[O-])cc1[N+](=O)[O-])*; d2Nal = N[C@H](Cc1ccc2ccccc2c1)C(=O)O; Suc = O=C(CCC(=O)[*:2])[*:1]; Dap = NC[C@H](N)C(=O)O

Key:
LNCaP cells = experiment: Internalization into LNCaP cells, relative cellular uptake to ([^125I]I-BA)KuE; format: cell-based; conditions: c = 1.0 nM ^177Lu-labeled inhibitor, 37° C., 60 min, corrected for non-specific binding (10 μM 2-PMPA), mean ± SD (n = 3)
Description: PSMA-positive LNCAP cells (300265; Cell Lines Service GmbH) were cultivated in Dulbecco modified Eagle medium/Nutrition Mixture F-12 (1/1) (DMEM-F12, Biochrom) supplemented with fetal calf serum (FCS) (10%, Biochrom) and kept at 37° C. in a humidified CO2 atmosphere (5%). One day (24 h±2 h) prior to all experiments with LNCaP cells, the cultivated cells were harvested using a mixture of trypsin/ethylendiaminetetraacetate (0.05%/0.02%) and PBS and centrifuged. After centrifugation, the supernatant was disposed and the cell pellet resuspended in culture medium. Afterwards, cells were counted with a hemocytometer (Neubauer) and seeded in 24-well plates.
Subsequent to the removal of the culture medium, the cells were washed once with DMEM-F12-solution (500 μL, 5% BSA) and left to equilibrate for at least 15 min at 37° C. in DMEM-F12-solution (200 μL, 5% BSA). Afterwards, each well was treated with either DMEM-F12-solution (25 μL, 5% BSA) or 2-PMPA-solution (25 μL, 100 μm) for blockade. […] The experiment was terminated by placing the 24-well plate on ice for 3 min and the consecutive removal of the medium. Each well was rinsed with HBSS (250 μL) and the fractions from these first two steps combined, representing the amount of free radioligand. Removal of surface bound activity was accomplished by incubation of the cells with ice-cold 2-PMPA-solution (250 μL, 10 μm in PBS) for 5 min and subsequent rinsing with ice-cold PBS (250 μL). The internalized activity was determined through incubation of the cells in NaOH (250 μL, 1.0 m) and the combination with the fraction of the subsequent washing step with again NaOH (250 μL, 1.0 m). Each experiment (control and blockade) was performed in triplicate for each time point. Free, surface bound and internalized activity was quantified in a γ-counter.

[1] = Lipophilicity, logP in n-octanol/PBS of radiolabeled PSMA inhibitors; format: physicochemical; conditions: pH 7.4
Description: The radiolabeled PSMA inhibitor (0.5 to 1.0 MBq) dissolved in PBS (500 μL, pH=7.4), was added to n-octanol (500 μL) in a reaction vial (1.5 mL), which was rigorously vortexed for 3 min (n=6). For quantitative phase separation, the mixture was centrifuged at 6,000 g for 5 min (Biofuge 15, Heraus Sepatech, Osterode, Germany). The activity from samples of each phase (100 μL) were measured in a γ-counter to obtain the log P(o/w) value.

HSA = molecular target: T1, HSA (Homo sapiens, UniProt P02768); experiment: HSA binding on Chiralpak HSA column; format: in vitro ADME
T1 construct: purchased Daicel Chemical Industries / Chiral Technologies Europe (Illkirch, France)
T1 sequence (P02768 25-609): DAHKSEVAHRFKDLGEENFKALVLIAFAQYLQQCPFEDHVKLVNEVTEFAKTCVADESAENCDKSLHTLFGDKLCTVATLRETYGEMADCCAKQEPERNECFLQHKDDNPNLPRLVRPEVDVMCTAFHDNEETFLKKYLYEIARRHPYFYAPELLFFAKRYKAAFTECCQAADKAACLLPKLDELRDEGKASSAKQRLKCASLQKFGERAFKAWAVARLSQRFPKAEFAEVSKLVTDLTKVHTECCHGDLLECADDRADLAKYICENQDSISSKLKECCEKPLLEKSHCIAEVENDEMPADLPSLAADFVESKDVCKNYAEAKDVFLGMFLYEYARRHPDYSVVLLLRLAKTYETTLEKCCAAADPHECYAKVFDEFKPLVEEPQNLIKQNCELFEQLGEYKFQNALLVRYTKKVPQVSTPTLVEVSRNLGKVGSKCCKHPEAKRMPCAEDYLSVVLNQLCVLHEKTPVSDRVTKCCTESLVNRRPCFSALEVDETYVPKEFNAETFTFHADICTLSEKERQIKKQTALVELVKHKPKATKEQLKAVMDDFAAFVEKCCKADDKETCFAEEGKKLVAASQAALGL
Description: HSA binding experiments were performed as previously described. […] For each run, 10 μL of the solution containing the inhibitor was injected into the RP-HPLC system and the retention time measured. […] Non-linear regression was established with OriginPro 2016G.

HSA (albumin binding) (HSA; human, 0.5 mg/mL) | Compound | Internalization (LNCaP cells) | logP [1] | logP ([1]; distribution coefficient in n-octanol/PBS, radiolabeled inhibitor, mean ± SD (n = 6), read-out: logP) | HSA (albumin binding) (HSA; after logarithmic plotting and calibration (n = 1))
95.4% | O=C(O)CC[C@H](NC(=O)N[C@@H](CCC(=O)NC(CCCNC(=O)CCC(=O)NCCCC[C@@H](NC(=O)[C@@H](Cc1ccc2ccccc2c1)NC(=O)[C@@H](Cc1ccc(O)cc1)NC(=O)[C@H](Cc1ccc([N+](=O)[O-])cc1)NC(=O)CCC(C(=O)O)N1CCN(CC(=O)O)CCN(CC(=O)O)CCN(CC(=O)O)CC1)C(=O)O)C(=O)O)C(=O)O)C(=O)O (stereo partly drawn) [PSMA-52, DOTAGA-F(4-NO2)-y-2-nal-k(Suc-N^5-orn-C^4-EuE)] ({DOTAGA}-[Phe(4-NO2)][dY][d2Nal][dK]([Suc-ξOrn(Nα-γGlu(Nα-CO-Glu))])-OH) | 229.9 ± 8.0% | -4.11 ± 0.07 |  | 
 | Nc1ccc(C[C@H](NC(=O)CCC(C(=O)O)N2CCN(CC(=O)O)CCN(CC(=O)O)CCN(CC(=O)O)CC2)C(=O)N[C@H](Cc2ccc(O)cc2)C(=O)N[C@H](Cc2ccc3ccccc3c2)C(=O)N[C@H](CCC(=O)Nc2ccc(C(=O)NCCCC(NC(=O)CC[C@H](NC(=O)N[C@@H](CCC(=O)O)C(=O)O)C(=O)O)C(=O)O)cc2)C(=O)O)cc1 (stereo partly drawn) [PSMA-60, DOTAGA-F(4-NH2)y-2-nal-e(Abz-N^5-orn-C^4-EuE)] | 267.4 ± 7.9% | -3.85 ± 0.13 |  | 
 | O=C(O)CC[C@H](NC(=O)N[C@@H](CCC(=O)NC(CCCNC(=O)CCC(=O)NCCCC[C@@H](NC(=O)[C@@H](Cc1ccc2ccccc2c1)NC(=O)[C@@H](Cc1ccc(O)cc1)NC(=O)[C@H](CNC(=O)CCC(C(=O)O)N1CCN(CC(=O)O)CCN(CC(=O)O)CCN(CC(=O)O)CC1)NC(=O)c1ccc([N+](=O)[O-])cc1[N+](=O)[O-])C(=O)O)C(=O)O)C(=O)O)C(=O)O (stereo partly drawn) [PSMA-53, 2,4-DNBA-Dap(DOTAGA)-y-2-nal-k(Suc-N^5-orn-C^4-EuE)] (X1-[Dap](DOTAGA)[dY][d2Nal][dK]([Suc-ξOrn(Nα-γGlu(Nα-CO-Glu))])-OH) | 293.6 ± 10.0% |  | -4.08 ± 0.04 | 95.9%
 | Nc1ccc(C[C@H](NC(=O)CCC(C(=O)O)N2CCN(CC(=O)O)CCN(CC(=O)O)CCN(CC(=O)O)CC2)C(=O)N[C@H](Cc2ccc(O)cc2)C(=O)N[C@H](Cc2ccc3ccccc3c2)C(=O)N[C@H](CCCCNC(=O)[C@@H](CC(=O)NCCCC(NC(=O)CC[C@H](NC(=O)N[C@@H](CCC(=O)O)C(=O)O)C(=O)O)C(=O)O)NC(=O)c2cc(O)cc(O)c2)C(=O)O)cc1 (stereo partly drawn) [PSMA-78, DOTAGA-F(4-NH2)y-2-nal-k(d[N^5-orn-C^4-EuE]-3,5-DHBA)] | 289.0 ± 6.2% |  |  | 
